Source: patent publication US8497299B2, “Compositions including quinonoid derivatives of cannabinoids for therapeutic use” (Yissum Research Development Company of The Hebrew …, priority 2004, dated 2013)
Where “and” joins values, the source holds several entries; their conditions need not be identical. Identical values can stand only once.

Legend:
HT-29 colon cancer = assay: Growth of HT-29 colon cancer grafted s.c. in nude mice; assay type: in vivo
Procedure: Tumors were grafted into nude mice by s.c. flank inoculation of 0.2×10^6 HT-29 cells in RPMI 1640 medium without FCS. The animals were assigned randomly to various groups and injected via intraperitoneal (i.p.), intratumor or subcutaneous (s.c.) on day 2 or 14 after cells injection with vehicle (1:1:18 v/v ethanol:Emulphor®:PBS) or 5 mg/kg of HU-331. Tumors were measured with external caliper, and their area was calculated by multiplying the length by the width of the tumor.
(§1) A series of experiments were carried out to determine the capacity of HU-331 to inhibit the growth of human tumor cells in vivo. Nude mice received a subcutaneous (s.c.) injection of HT-29 human colon cancer cells. At various time intervals after the administration of the tumor cells the mice received i.p. or s.c. injections of HU-331 (2) at a dose of 5 mg/kg 3 times per week. This concentration paralleled the concentration of 5 μg/ml used in the in vitro experiments, which killed about 50% of HT-29 cancer cells.
Further, ten nude mice received a s.c. injection of HT-29 and were divided in two groups. Starting from day 2 after tumor injection, one group of mice received the i.p. injections of HU-331.
In another in vivo experiment, two groups of nude mice received an injection of HT-29 cancer cells subcutaneously in their backs. HU-331 (2) was injected subcutaneously at a concentration of 5 μg/ml (FIG. 6). In one group (Group 1), HU-331 was administrated intra-tumorally starting 14 days after the injection of tumor cells. In another group (Group 2), HU-331 was injected subcutaneously in the region where cancer cells had been injected, starting 2 days after the injection of tumor cells. […] In the mice that received HU-331 intra-tumorally starting 14 days after tumor implantation (Group 1), the anti-tumor effect of HU-331 took a longer time to be manifested.

[1] = Tolerability in treated nude mice (weight loss, adverse effects); assay type: in vivo; settings: 5 mg/kg
Procedure: as §1

[2] = system: human cancer cell lines (Raji, Jurkat, SNB-19, MCF-7, DU-145, NCI-H-226, HT-29); assay: MTT cell proliferation test, all cell lines tested; assay type: cell-based; settings: for growth inhibition of human cancer cell lines in vitro, in words: MTT; for concentration at which all cell lines tested were inhibited: all cell lines / cell types tested
Procedure: (§2) Aliquots (200 μL) of suspensions of cancer cells were dispensed into wells of 96-well tissue culture plates at densities of 0.02×10^6 cells/well. Various concentrations of cannabinoic quinones were introduced into the wells, and their efficacy was tested three days after initiation of the cultures, using the 3-(4,5-dimethylthiazol-2-yl)-2,5-diphenyltetrazolium bromide (MTT) assay. The principle of this assay is that cells which survive following exposure to various compounds can reduce MTT to a dark-colored formazan, while dead cells are incapable of doing so. […] In each MTT assay every concentration of the cytotoxic substance was tested in five replicates in microplate wells. Assays with every cell line were carried out in two to three repeated experiments. The inhibitory effect of various compounds was calculated as percentage inhibition in comparison with the values obtained in untreated wells to which vehicle (ethanol 0.5%) was added.

HT-29 (colon cancer) = assay: MTT cell proliferation test, HT-29 cells; assay type: cell-based, human
Procedure: (§3) Raji and Jurkat cells were suspended in RPMI 1640 medium, supplemented with 20% heat-inactivated fetal calf serum (H-I FCS), 2 mM L-glutamine, 100 U/mL penicillin, and 0.01 mg/mL streptomycin at 37° C. in a 5% CO2 humidified atmosphere. Other cell lines were suspended in RPMI 1640 medium, supplemented with 10% H-I FCS, 2 mM L-glutamine, 100 U/mL penicillin, and 0.01 mg/mL streptomycin at 37° C. in a 5% CO2 humidified atmosphere.
(§4) Aliquots (200 μL) of suspensions of cancer cells were dispensed into wells of 96-well tissue culture plates at densities of 0.02×10^6 cells/well. Various concentrations of cannabinoic quinones were introduced into the wells, and their efficacy was tested three days after initiation of the cultures, using the 3-(4,5-dimethylthiazol-2-yl)-2,5-diphenyltetrazolium bromide (MTT) assay. The principle of this assay is that cells which survive following exposure to various compounds can reduce MTT to a dark-colored formazan, while dead cells are incapable of doing so. The assay was performed as described previously [Carmichael, J., et al. (1987) Cancer Res. 47, 936-42; Rubinstein, L. V. et al. (1990) J Natl Cancer Inst. 82, 1113-8; Rubnov, S. et al. (2001) J Nat Prod. 64, 993-6]. In each MTT assay every concentration of the cytotoxic substance was tested in five replicates in microplate wells. Assays with every cell line were carried out in two to three repeated experiments. The inhibitory effect of various compounds was calculated as percentage inhibition in comparison with the values obtained in untreated wells to which vehicle (ethanol 0.5%) was added.
(§5) The ability of cannabinoic quinones to inhibit cancer growth in vitro was verified on the following human cancer cell lines: Raji (Burkitt's lymphoma), Jurkat (human T-cell lymphoma), SNB-19 (glioblastoma), MCF-7 (breast cancer), DU-145 (prostate cancer), NCI-H-226 (lung cancer), and HT-29 (colon cancer) (see FIG. 5A-5E).

MCF-7 (breast cancer) = assay: MTT cell proliferation test, MCF-7 cells; assay type: cell-based, human
Procedure: as §3, §4, §5

[3] = system: Raji (Burkitt's lymphoma); assay: MTT cell proliferation test, Raji cells; assay type: cell-based, human
Procedure: as §2

[4] = system: Jurkat (human T-cell lymphoma); assay: MTT cell proliferation test, Jurkat cells; assay type: cell-based
Procedure: as §2

DU-145 (prostate cancer) = assay: MTT cell proliferation test, DU-145 cells; assay type: cell-based, human; settings: for susceptibility of the cell line to inhibition, in words: DU-145, relative to the other cell lines
Procedure: as §2

SNB-19 (glioblastoma) = assay: MTT cell proliferation test, SNB-19 cells; assay type: cell-based, human; settings: for susceptibility of the cell line to inhibition, in words: SNB-19, relative to the other cell lines
Procedure: as §2

Question: Which “tumor size versus controls” value (HT-29 colon cancer; i.p. 5 mg/kg 3 times per week from day 2, at 35 days after cancer cell injection, p<0.0029) does the source give for `C=C(C)[C@@H]1CCC(C)=C[C@H]1C1=C(O)C(=O)C(CCCCC)=CC1=O` [HU-331, 3S,4R-p-benzoquinone-3-hydroxy-2-p-mentha-(1,8)-dien-3-yl-5-pentyl] here?
Answer: Its value is “half the size of the tumors in controls”.

Question: What about the “tumor size versus vehicle-treated control mice” value (HT-29 colon cancer; i.p. 5 mg/kg 3 times per week from day 2, starting at 25 days after cancer cells injection, p<0.05) of the same compound?
Answer: Its value is “significantly smaller”.

Question: And the “tumor size versus controls” value (HT-29 colon cancer; intra-tumoral from day 14 (Group 1), from day 31 onwards, not significant until day 45)?
Answer: The value was “smaller than in controls”.

Question: What about the “tumor size versus control mice” value (HT-29 colon cancer; intra-tumoral from day 14 (Group 1), starting at day 45 after cell injection, p<0.05) of the same compound?
Answer: The value was “significantly smaller”.

Question: And the “tumor size versus control mice” value (HT-29 colon cancer; s.c. in the region of the graft from day 2 (Group 2), at days 17-25 and until day 59, p<0.05)?
Answer: The value was “significantly smaller”.

Question: And the “weight loss and observable adverse effects” value [1]?
Answer: The value was “did not cause either weight loss or any observable adverse effects”.

Question: What about the “growth inhibition of human cancer cell lines in vitro, in words” value [2] of the same compound?
Answer: The value was “exerted an inhibitory effect on the in vitro growth of all seven human cancer cell lines tested”.

Question: What about the “susceptibility of the cell line to inhibition, in words” value (HT-29 (colon cancer); HT-29, relative to the other cell lines) of the same compound?
Answer: The value was “most susceptible”.

Question: What about the “concentration required for 50% inhibition of growth” value (HT-29 (colon cancer); HT-29 colon cancer, MTT, three days) of the same compound?
Answer: The value was 3.125 µg/mL.

Question: And the “inhibition of HT-29 cell growth” value (HT-29 (colon cancer); at 3.125 μg/ml)?
Answer: The value was “about 50%”.

Question: What about the “HT-29 cancer cells killed” value (HT-29 (colon cancer); at 5 μg/ml in vitro) of the same compound?
Answer: Its value is “about 50%”.

Question: And the “susceptibility of the cell line to inhibition, in words” value (MCF-7 (breast cancer); MCF-7, relative to the other cell lines)?
Answer: Its value is “most susceptible”.

Question: What about the “concentration required for 50% inhibition of growth” value (MCF-7 (breast cancer); MCF-7 mammary cancer, MTT, three days) of the same compound?
Answer: The value was 3.125 µg/mL.

Question: What about the “inhibition of MCF-7 cell growth” value (MCF-7 (breast cancer); at 3.125 μg/ml) of the same compound?
Answer: The value was “about 50%”.

Question: And the “concentration giving 50% inhibition of growth” value ([3]; Raji lymphoma, MTT, three days)?
Answer: Its value is 0.2 µg/mL.

Question: And the “inhibition of Raji cell growth” value ([3]; at 0.2 μg/ml)?
Answer: Its value is “about 50%”.

Question: What about the “inhibition of Raji cell growth” value ([3]; at 1.56 μg/ml) of the same compound?
Answer: Its value is “over 80%”.

Question: What about the “concentration giving 50% inhibition of growth” value ([4]; Jurkat lymphoma, MTT, three days) of the same compound?
Answer: Its value is 0.2 µg/mL.

Question: What about the “inhibition of Jurkat cell growth” value ([4]; at 0.2 μg/ml) of the same compound?
Answer: Its value is “about 50%”.

Question: And the “inhibition of Jurkat cell growth” value ([4]; at 1.56 μg/ml)?
Answer: Its value is “over 80%”.

Question: Which “susceptibility of the cell line to inhibition, in words” value (DU-145 (prostate cancer)) does the source give for `CCCCCC1=CC(=O)C2=C(OC(C)(C)[C@@H]3CC=C(C)C[C@@H]23)C1=O` [HU-336, 6aR,10aR-1-H-dibenzo[b,d]pyran-1,4-(6H)-dione-6aβ,7,10,10aα-tetrahydro-6,6,9-trimethyl-3-pentyl] here?
Answer: The value was “most susceptible”.

Question: And the “susceptibility of the cell line to inhibition, in words” value (SNB-19 (glioblastoma))?
Answer: The value was “most susceptible”.

Question: And the “concentration at which growth was inhibited” value (SNB-19 (glioblastoma); SNB-19 cells, inhibited only at this concentration)?
Answer: The value was 100 µg/mL.

Question: What about the “growth inhibition of human cancer cell lines in vitro, in words” value [2] of the same compound?
Answer: The value was “weakest capacity to inhibit the growth of human cancer cell lines in vitro”.

Question: What about the “concentration at which all cell lines tested were inhibited” value [2] of the same compound?
Answer: Its value is “over 12.5 μg/ml”.

Question: And the “inhibition of growth of all the cells tested” value ([2]; at 12.5 μg/ml or higher)?
Answer: The value was at least 50%.

Question: For `CCCCCC1=CC(=O)C2=C(OC(C)(C)c3ccc(C)cc32)C1=O` [HU-345, 1-H-dibenzo[b,d]pyran-1,4(6H)-dione-6,6,9-trimethyl-3-pentyl], which “susceptibility of the cell line to inhibition, in words” value (DU-145 (prostate cancer)) is on record?
Answer: The value was “most susceptible”.

Question: What about the “concentration at which growth was inhibited” value (DU-145 (prostate cancer); DU-145 prostate cancer cells) of the same compound?
Answer: Its value is 12.5 µg/mL.

Question: And the “susceptibility of the cell line to inhibition, in words” value (SNB-19 (glioblastoma))?
Answer: The value was “most susceptible”.

Question: And the “concentration at which all cell lines tested were inhibited” value [2]?
Answer: The value was 25.0 µg/mL and 12.5 to 25.0 µg/mL.

Question: And the inhibition at 6.25 µg/mL ([3]; Homo sapiens, Raji, read-out: inhibition of Raji cell growth)?
Answer: Its inhibition at 6.25 µg/mL is over 50%.

Question: And the “inhibition of Raji cell growth, comparison in words” value ([3]; MTT)?
Answer: Its value is “more effectively than that of the other cell lines tested”.

Question: What about the “concentration at which growth was inhibited” value ([4]; Jurkat cells) of the same compound?
Answer: Its value is 12.5 µg/mL and 12.5 to 25.0 µg/mL.

Question: Which results are given for `CCCCCC1=CC(=O)C([C@@H]2C=C(C)CC[C@H]2C(C)C)=C(O)C1=O` [HU-395, 3S,4R-p-benzoquinone-3-hydroxy-2-[p-mentha-1-en-3-yl]-5-pentyl]?
Answer: inhibition at 0.2 µg/mL ([4]; Homo sapiens, Jurkat, at 0.2 μg/ml, read-out: inhibition of Jurkat cell growth): ~60%; inhibition of Jurkat cell proliferation, comparison in words ([4]; MTT): at least to the same extent as HU-331

Question: What does the source list for `CCCCCC1=CC(=O)C([C@@H]2CC(C)CC[C@H]2C(C)C)=C(O)C1=O` (stereo partly drawn) [HU-396, 3S,4R-p-benzoquinone-3-hydroxy-2-[p-menthan-3-yl]-5-pentyl]?
Answer: inhibition of Jurkat cell proliferation, comparison in words ([4]; MTT): less effectively than HU-395 and HU-331; Jurkat cancer cells killed ([4]; at 0.39 μg/ml): about 40%; Jurkat cancer cells killed ([4]; at 0.78 μg/ml): about 60%
